{"source": "patent US20230414584A1", "about": "“ADMINISTRATION OF ANTIBIOTIC COMPOUNDS FOR THE TREATMENT OF STREPTOCOCCAL INFECTIONS FOR THE TREATMENT OF PSORIASIS” (CENTRE FOR DIGESTIVE DISEASES, priority 2017, published 2023)", "key": {"[1]": {"system": "extensive plaque psoriasis", "assay": "Case report: treatment of psoriasis with Clofazimine, Rifampicin, Tinidazole, Enbrel (Example 4)", "format": "in vivo, human", "procedure": "It was at this time that antibiotics were added to the etanercept (Enbrel™)."}, "psoriasis of the scalp": {"system": "psoriasis of the scalp", "assay": "Case report: treatment of psoriasis of the scalp in an adult with OCD using Metronidazole (Example 1)", "format": "in vivo, human", "excerpt": "A patient with Obsessive-Compulsive Personality Disorder (OCD) commenced treatment in April 2016 with two non-absorbable antibiotics (vancomycin and rifaximin), together with the absorbable Metronidazole. The aim was to suppress their gut bacteria to reduce the OCD."}}}
{"compound": "CN(Cc1cnc2nc(N)nc(N)c2n1)c1ccc(C(=O)N[C@@H](CCC(=O)O)C(=O)O)cc1", "note": "[Methotrexate]", "values": [{"measurement": "adverse effects", "setting": "[1]; person, steroid-dependent extensive psoriasis", "result": "unacceptable adverse effects"}]}
{"compound": "Cc1ncc([N+](=O)[O-])n1CCO", "note": "[Metronidazole]", "values": [{"measurement": "psoriasis of the scalp", "setting": "psoriasis of the scalp; patient, Metronidazole given with non-absorbable vancomycin and rifaximin from April 2016, by November of 2016", "result": "marked suppression of the psoriasis of the scalp"}, {"measurement": "psoriasis of the scalp", "setting": "psoriasis of the scalp; same patient, by February of 2017", "result": "very little psoriasis left on the scalp"}]}
{"compound": "etanercept", "values": [{"measurement": "response of psoriasis on continued treatment", "setting": "[1]; in spite of many months of injections, before antibiotics were added", "result": "the response stalled"}, {"measurement": "response of psoriasis", "setting": "[1]; person, before antibiotics were added", "result": "reduction of the surface area of their body covered by psoriasis plaque"}]}
